This passage reports IC50 results from patent US20210300936A1, “PYRAZOLOTRIAZOLOPYRIMIDINE DERIVATIVES AS A2A RECEPTOR ANTAGONIST” (BEIGENE, LTD., priority 2018, published 2021).

The assay deals with human A2A receptor (A2AR) (Homo sapiens, UniProt P29274). Briefly: Luciferase reporter assay (HEK293-A2AR-luc2p/CRE/Hygro cells, 3 nM CGS21680). In kind it is cell-based. To be noted: 3 nM CGS21680, 5 h incubation. A digest of the protocol: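 Antagonist (0.1–10000 nM) and 3 nM CGS21680 were co-added for 5 h to stable HEK293-A2AR-luc2p/CRE cells, 18 h after seeding in 1% FBS medium containing adenosine deaminase. Luminescence was normalized to agonist alone (100%), and IC50 came from the dose–inhibition curve.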
Sequence of human A2A receptor (A2AR) (P29274 whole entry): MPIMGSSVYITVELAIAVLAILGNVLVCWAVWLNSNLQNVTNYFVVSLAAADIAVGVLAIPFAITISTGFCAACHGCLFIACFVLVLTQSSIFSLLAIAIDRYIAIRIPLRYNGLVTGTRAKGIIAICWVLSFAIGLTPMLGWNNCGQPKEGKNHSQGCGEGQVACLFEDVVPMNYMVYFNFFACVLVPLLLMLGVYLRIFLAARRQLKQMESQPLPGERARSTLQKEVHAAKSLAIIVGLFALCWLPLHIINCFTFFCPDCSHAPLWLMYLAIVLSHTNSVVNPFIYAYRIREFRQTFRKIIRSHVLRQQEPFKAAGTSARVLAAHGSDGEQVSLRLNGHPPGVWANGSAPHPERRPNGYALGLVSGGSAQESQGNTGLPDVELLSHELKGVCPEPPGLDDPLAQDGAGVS
Background: A reporter such as luciferase makes a cellular process visible.

Structures are written as SMILES.

One may read the IC50 as the concentration needed to halve the response being measured. For the compound `COCCOc1ccc(N2CCN(C(=O)C(C)(c3ccccc3)n3ncc4c3nc(N)n3nc(-c5ccco5)nc43)C[C@H]2C)cc1` (stereo partly drawn) [Compound A73, 2-(5-amino-2-(furan-2-yl)-7H-pyrazolo[4,3-e][1,2,4]triazolo[1,5-c]pyrimidin-7-yl)-1-((R)-4-(4-(2-methoxyethoxy)phenyl)-3-methylpiperazin-1-yl)-2-phenylpropan-1-one], 15.6 nM corresponded to half-maximal inhibition (IC50).

For `COCCOc1cc(F)c(N2CCN(C(=O)[C@](C)(c3ccccc3)n3ncc4c3nc(N)n3nc(-c5ccco5)nc43)CC2)cc1F` [Compound A65a, (S)-2-(5-amino-2-(furan-2-yl)-7H-pyrazolo[4,3-e][1,2,4]triazolo[1,5-c]pyrimidin-7-yl)-1-(4-(2,5-difluoro-4-(2-methoxyethoxy)phenyl)piperazin-1-yl)-2-phenylpropan-1-one], 21.4 nM corresponded to half-maximal inhibition (IC50). The IC50 values of the last two compounds are within 1.5-fold of each other.

`COCCOc1ccc(N2CCN(C(=O)C(C)(C)n3cc4c(nc(N)n5nc(-c6ccco6)nc45)n3)CC2)cc1` [Compound C3, 2-(5-amino-2-(furan-2-yl)-8H-pyrazolo[4,3-e][1,2,4]triazolo[1,5-c]pyrimidin-8-yl)-1-(4-(4-(2-methoxyethoxy)phenyl)piperazin-1-yl)-2-methylpropan-1-one] displayed an IC50 of 1870 nM.

`CCCC(C(=O)N1CCN(c2ccc(OCCOC)cc2)CC1)n1cc2c(nc(N)n3nc(-c4ccco4)nc23)n1` (stereo not shown) [Compound C5, 2-(5-amino-2-(furan-2-yl)-8H-pyrazolo[4,3-e][1,2,4]triazolo[1,5-c]pyrimidin-8-yl)-1-(4-(4-(2-methoxyethoxy)phenyl)piperazin-1-yl)pentan-1-one]: half-maximal inhibition (IC50) was put at 132 nM.

Regarding `CCCC(C(=O)N1CCN(c2ccc(F)cc2F)CC1)n1cc2c(nc(N)n3nc(-c4ccco4)nc23)n1` (stereo not shown) [Compound C21, 2-(5-amino-2-(furan-2-yl)-8H-pyrazolo[4,3-e][1,2,4]triazolo[1,5-c]pyrimidin-8-yl)-1-(4-(2,4-difluorophenyl)piperazin-1-yl)pentan-1-one], the 50% inhibitory concentration (IC50) was found to be 100 nM.

For the compound `CCCC(C(=O)N1CCN(c2ccc(OCCOCCOC)cc2)CC1)n1ncc2c1nc(N)n1nc(-c3ccco3)nc21` (stereo not shown) [Compound A6, 2-(5-amino-2-(furan-2-yl)-7H-pyrazolo[4,3-e][1,2,4]triazolo[1,5-c]pyrimidin-7-yl)-1-(4-(4-(2-(2-methoxyethoxy)ethoxy)phenyl)piperazin-1-yl)pentan-1-one], the IC50 was determined as 9.5 nM. This IC50 is about 11-fold lower than that of the compound before.

On to `COc1ccccc1N1CCN(C(=O)C(C)(c2ccccc2)n2ncc3c2nc(N)n2nc(-c4ccco4)nc32)CC1` (stereo not shown) [Compound A78, 2-(5-amino-2-(furan-2-yl)-7H-pyrazolo[4,3-e][1,2,4]triazolo[1,5-c]pyrimidin-7-yl)-1-(4-(2-methoxyphenyl)piperazin-1-yl)-2-phenylpropan-1-one], for which the IC50 stood at 6.2 nM.

Compound `Nc1nc2c(cnn2C(C(=O)N2CCCc3ccccc32)c2ccccc2)c2nc(-c3ccco3)nn12` (stereo not shown) [Compound B4, 2-(5-amino-2-(furan-2-yl)-7H-pyrazolo[4,3-e][1,2,4]triazolo[1,5-c]pyrimidin-7-yl)-1-(3,4-dihydroquinolin-1(2H)-yl)-2-phenylethan-1-one] registered an IC50 of 2.9 nM.

The compound `Nc1nc2c(cnn2C(C(=O)N2CCc3ccncc3C2)c2ccccc2)c2nc(-c3ccco3)nn12` (stereo not shown) [Compound B8, 2-(5-amino-2-(furan-2-yl)-7H-pyrazolo[4,3-e][1,2,4]triazolo[1,5-c]pyrimidin-7-yl)-1-(3,4-dihydro-2,7-naphthyridin-2(1H)-yl)-2-phenylethan-1-one] showed an IC50 of 4 nM.

Compound `COCCOc1ccc(N2CCN(C(=O)C(c3ccccc3)n3ncc4c3nc(N)n3nc(-c5ccco5)nc43)C(C)C2)cc1` (single isomer, unassigned) [Compound A50a] displayed an IC50 of 88.2 nM.

In turn, `CCC(C(=O)N1CCN(c2ccc(OCCOC)cc2)CC1)n1cc2c(nc(N)n3nc(-c4ccco4)nc23)n1` (stereo not shown) [Compound C4, 2-(5-amino-2-(furan-2-yl)-8H-pyrazolo[4,3-e][1,2,4]triazolo[1,5-c]pyrimidin-8-yl)-1-(4-(4-(2-methoxyethoxy)phenyl)piperazin-1-yl)butan-1-one] registered a 50% inhibitory concentration (IC50) of 140 nM.

Take `COCCOc1ccc(N2CCN(C(=O)C(C)(c3ccccc3)n3ncc4c3nc(N)n3nc(-c5ccco5)nc43)[C@@H](C)C2)cc1` (stereo partly drawn) [Compound A72, 2-(5-amino-2-(furan-2-yl)-7H-pyrazolo[4,3-e][1,2,4]triazolo[1,5-c]pyrimidin-7-yl)-1-((S)-4-(4-(2-methoxyethoxy)phenyl)-2-methylpiperazin-1-yl)-2-phenylpropan-1-one]: half-maximal inhibition (IC50) was put at 103 nM.

Turning to `CC(C(=O)N1CCN(c2ccccc2C(=O)N2CCCCC2)CC1)(c1ccccc1)n1ncc2c1nc(N)n1nc(-c3ccco3)nc21` (stereo not shown) [Compound A99, 2-(5-amino-2-(furan-2-yl)-7H-pyrazolo[4,3-e][1,2,4]triazolo[1,5-c]pyrimidin-7-yl)-2-phenyl-1-(4-(2-(piperidine-1-carbonyl)phenyl)piperazin-1-yl)propan-1-one], the IC50 came to 28.6 nM.

In turn, `COc1ccc(N2CCN(C(=O)C(C)(c3ccccc3)n3ncc4c3nc(N)n3nc(-c5ccco5)nc43)CC2)c(OC)c1` (stereo not shown) [Compound A105, 2-(5-amino-2-(furan-2-yl)-7H-pyrazolo[4,3-e][1,2,4]triazolo[1,5-c]pyrimidin-7-yl)-1-(4-(2,4-dimethoxyphenyl)piperazin-1-yl)-2-phenylpropan-1-one] gave an IC50 of 10.3 nM.

The compound `COCCOc1ccc(N2CCN(C(=O)C(C)n3ncc4c3nc(N)n3nc(-c5ccco5)nc43)CC2)cc1` (single isomer, unassigned) [Compound A1a, 2-(5-amino-2-(furan-2-yl)-7H-pyrazolo[4,3-e][1,2,4]triazolo[1,5-c]pyrimidin-7-yl)-1-(4-(4-(2-methoxyethoxy)phenyl)piperazin-1-yl)propan-1-one] gave an IC50 of 223 nM. Against the preceding compound, the IC50 is about 22-fold higher.

`CC(C(=O)N1CCN(c2ccc(OCCO)cc2)CC1)(c1ccccc1)n1ncc2c1nc(N)n1nc(-c3ccco3)nc21` (stereo not shown) [Compound A108, 2-(5-amino-2-(furan-2-yl)-7H-pyrazolo[4,3-e][1,2,4]triazolo[1,5-c]pyrimidin-7-yl)-1-(4-(4-(2-hydroxyethoxy)phenyl)piperazin-1-yl)-2-phenylpropan-1-one] yielded an IC50 of 3.5 nM.

For `CCCCC(C(=O)N1CCN(c2ccc(OCCOC)cc2)CC1)n1cc2c(nc(N)n3nc(-c4ccco4)nc23)n1` (stereo not shown) [Compound C10, 2-(5-amino-2-(furan-2-yl)-8H-pyrazolo[4,3-e][1,2,4]triazolo[1,5-c]pyrimidin-8-yl)-1-(4-(4-(2-methoxyethoxy)phenyl)piperazin-1-yl)hexan-1-one], the IC50 is 126 nM.

Regarding `COCCOc1ccc(N2CCN(C(=O)C(C)(C)n3ncc4c3nc(N)n3nc(-c5ccco5)nc43)CC2)cc1` [Compound A3, 2-(5-amino-2-(furan-2-yl)-7H-pyrazolo[4,3-e][1,2,4]triazolo[1,5-c]pyrimidin-7-yl)-1-(4-(4-(2-methoxyethoxy)phenyl)piperazin-1-yl)-2-methylpropan-1-one], the midpoint of inhibition, the IC50, lay at 362 nM.

As for `CN1CCN(CCOc2ccc(N3CCN(C(=O)[C@](C)(c4ccccc4)n4ncc5c4nc(N)n4nc(-c6ccco6)nc54)CC3)cc2)CC1` [Compound A81a, (S)-2-(5-amino-2-(furan-2-yl)-7H-pyrazolo[4,3-e][1,2,4]triazolo[1,5-c]pyrimidin-7-yl)-1-(4-(4-(2-(4-methylpiperazin-1-yl)ethoxy)phenyl)piperazin-1-yl)-2-phenylpropan-1-one], inhibition was half-maximal at 7.9 nM (IC50).
